28 compounds from PubChem BioAssay (NCI) can be followed below.

Among the test systems are MDA-MB-231 breast; MDA-N; K-562 leukemia; NCI/ADR-RES ovarian; EKVX NSCLC; MDA-MB-435; UO-31 renal; SK-MEL-5 melanoma; SF-268 CNS; BT-549 breast.
Common to all, as to test: DTP human tumour cell line panel, 48 h

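A five-concentration, 48-hour dose response in 96-well plates underlies each endpoint, interpolated linearly between surrounding concentrations. GI50: concentration for 50% inhibition of growth. TGI is the concentration that stops growth completely.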 Bounds are passed on as bounds.

Regarding `O=C(/C=C/c1cccc(Br)c1)c1cccs1`, the TGI (as a rule, the concentration at which net growth stops) with MDA-MB-231 breast is 38.8 µM; in the assay with MDA-N it was 22.3 µM; in the assay with K-562 leukemia, 16.6 µM; in the assay with NCI/ADR-RES ovarian, 56.9 µM; with EKVX NSCLC, 37.4 µM; with MDA-MB-435, 25.5 µM. The TGI in the assay on UO-31 renal turned out to be 25.7 µM; in the assay with SK-MEL-5 melanoma it was 30.7 µM; with SF-268 CNS, 42.1 µM.
As to `COC(=O)C(C)(N=Cc1ccccc1)c1ccccc1` (stereo not drawn), the total growth inhibition concentration (TGI) with MDA-MB-231 breast, in the assay on MDA-N, with K-562 leukemia, in the assay with NCI/ADR-RES ovarian, in the assay with EKVX NSCLC and in the assay with MDA-MB-435 was > 100 µM throughout. For the same compound, the TGI in the assay on UO-31 renal, in the assay with SK-MEL-5 melanoma and in the assay on SF-268 CNS was > 100 µM in each case.
As for `COc1ccc(N2C(=Nc3ccccc3)SC(=N/S(=O)(=O)c3ccccc3)/C2=N\S(=O)(=O)c2ccccc2)cc1`, the TGI in the assay with MDA-MB-231 breast was 43.5 µM; with K-562 leukemia, 44.1 µM; in the assay on EKVX NSCLC it was 61.2 µM; with UO-31 renal it was 55.3 µM; in the assay on BT-549 breast, 54.2 µM; in the assay with SK-MEL-5 melanoma, 31.9 µM.
`CC(C)[C@@H]1CC[C@@H](C)C[C@H]1OC(=O)/C=C1/C2C=CC(O2)C1C(=O)O[C@@H]1C[C@H](C)CC[C@H]1C(C)C` (stereo partly drawn): the TGI in the assay with MDA-MB-231 breast, in the assay on MDA-N, in the assay with K-562 leukemia, in the assay with NCI/ADR-RES ovarian, with EKVX NSCLC and in the assay with MDA-MB-435 was > 100 µM each time. The TGI in the assay on UO-31 renal, in the assay on SK-MEL-5 melanoma and in the assay on SF-268 CNS was > 100 µM throughout.
Turning to `CCOc1ccc(/C=C(\Cl)c2ccc(OC)c(OC)c2)cc1`, the TGI in the assay with K-562 leukemia, with EKVX NSCLC, in the assay on UO-31 renal, in the assay with SK-MEL-5 melanoma and with SF-268 CNS was > 100 µM throughout.
As for `O=C(Nc1nc2ccccc2n1Cc1ccccc1)NC12CC3CC(CC(C3)C1)C2`, the TGI is > 100 µM in the assay with K-562 leukemia; > 100 µM in the assay with EKVX NSCLC; > 100 µM in the assay with UO-31 renal; > 100 µM in the assay with SK-MEL-5 melanoma; 35.5 µM with SF-268 CNS.
`COc1cc2c(c(OC)c1OC)-c1ccc(SC)c(=O)cc1[C@@H](OC(C)=O)CC2`: the TGI was > 100 µM in the assay with MDA-MB-231 breast; > 100 µM in the assay on K-562 leukemia; > 100 µM with EKVX NSCLC; > 52.5 µM in the assay on UO-31 renal; > 100 µM in the assay with BT-549 breast; 25.1 µM with SF-268 CNS.
Regarding `COC(=O)C(CCc1ccccc1I)C1=CCC2(CC1)OCCO2` (stereo not drawn), the TGI in the assay with MDA-MB-231 breast was > 100 µM; in the assay with MDA-N, 94.3 µM; in the assay on K-562 leukemia, > 100 µM; in the assay with NCI/ADR-RES ovarian, > 100 µM; with EKVX NSCLC it was > 100 µM; in the assay with MDA-MB-435 it was 87.7 µM. Besides, the TGI with UO-31 renal was 76.2 µM; in the assay with SK-MEL-5 melanoma it was 40 µM; in the assay on SF-268 CNS, > 100 µM.
Take `CC(C)SC(C)(NC(=O)C1C(C)(C)CCC1(C)C)C(=O)O` (stereo not drawn): the TGI with MDA-MB-231 breast, in the assay with MDA-N, in the assay with K-562 leukemia, with NCI/ADR-RES ovarian, in the assay on EKVX NSCLC and with MDA-MB-435 was > 100 µM each time. In addition, the TGI in the assay with UO-31 renal, in the assay with SK-MEL-5 melanoma and in the assay on SF-268 CNS was > 100 µM in each case.
On to `O=C(Nc1nc2c(=O)[nH]cnc2s1)c1ccccc1`, for which the TGI with K-562 leukemia, with NCI/ADR-RES ovarian, with EKVX NSCLC, in the assay with MDA-MB-435, in the assay on UO-31 renal and in the assay with BT-549 breast was > 100 µM in each case. The TGI in the assay with SK-MEL-5 melanoma and in the assay on SF-268 CNS was > 100 µM throughout.
Take `O=C(O)CCCCCOc1cccnc1/C=N/NC1=NCCN1`: the TGI in the assay with K-562 leukemia, with EKVX NSCLC, with UO-31 renal, with SK-MEL-5 melanoma and with SF-268 CNS was > 100 µM throughout.
Regarding `Cc1ccc(S(=O)(=O)NC(=O)NC23CC4CC(CC(F)(C4)C2)C3)cc1`, the total growth inhibition concentration (TGI) in the assay on K-562 leukemia, with EKVX NSCLC, in the assay on UO-31 renal and in the assay with SK-MEL-5 melanoma was > 100 µM in each case.
Take `C=CCOCn1cnc2c(N)ncnc21`: the TGI in the assay on MDA-MB-231 breast, in the assay with MDA-N, with K-562 leukemia, in the assay on NCI/ADR-RES ovarian, with EKVX NSCLC and with MDA-MB-435 was > 100 µM in each case. The TGI in the assay with UO-31 renal, in the assay on SK-MEL-5 melanoma and with SF-268 CNS was > 100 µM in each case.
For `O=C(N=C1SCCN1C(=O)C(C(F)(F)F)C(F)(F)F)C(C(F)(F)F)C(F)(F)F`, the TGI with MDA-MB-231 breast, in the assay on K-562 leukemia, in the assay with NCI/ADR-RES ovarian, with EKVX NSCLC, with MDA-MB-435 and with UO-31 renal was > 100 µM each time. Further, the TGI in the assay on SK-MEL-5 melanoma was > 100 µM.
With `CC1(C)N=C(C(N)=O)c2ncn(CCO)c2N1`, the TGI with MDA-MB-231 breast, in the assay on MDA-N, with K-562 leukemia, with NCI/ADR-RES ovarian, in the assay on EKVX NSCLC and in the assay on MDA-MB-435 was > 100 µM in each case. For the same compound, the TGI in the assay with SK-MEL-5 melanoma and in the assay on SF-268 CNS was > 100 µM each time.
On to `N=c1nnc(=O)c2c(s1)-n1ncc(C(=O)O)c1NN2`, for which the total growth inhibition concentration (TGI) in the assay on K-562 leukemia, in the assay on EKVX NSCLC, in the assay with UO-31 renal, with SK-MEL-5 melanoma and in the assay with SF-268 CNS was > 100 µM in each case.
In the case of `Cc1ccnc2[nH]c(-c3cccc(Cl)c3)cc(=O)c12`, the TGI is 0.0861 µM in the assay with MDA-MB-231 breast; > 100 µM in the assay on NCI/ADR-RES ovarian; > 100 µM in the assay on EKVX NSCLC; > 70.2 µM with UO-31 renal; > 35.7 µM in the assay with SK-MEL-5 melanoma; > 100 µM in the assay with SF-268 CNS.
`NC(=O)N/N=C/C(/C=N/NC(N)=O)[N+](=O)[O-]`: the TGI in the assay with K-562 leukemia, in the assay on EKVX NSCLC and in the assay on SF-268 CNS was > 100 µM throughout.
Consider `O=c1[nH]nc(-c2ccccc2)n1/N=C/c1c[nH]c2ccccc12`, for which the TGI in the assay with MDA-MB-231 breast, in the assay on MDA-N, with K-562 leukemia, in the assay with NCI/ADR-RES ovarian, in the assay on EKVX NSCLC and in the assay on MDA-MB-435 was > 100 µM throughout. Moreover, the TGI with UO-31 renal, in the assay with SK-MEL-5 melanoma and in the assay on SF-268 CNS was > 100 µM in each case.
As for `O=C1CSc2nc3ccccc3n2/C=N\N1`, the TGI with MDA-MB-231 breast, with MDA-N, with K-562 leukemia, with NCI/ADR-RES ovarian, with MDA-MB-435 and in the assay on UO-31 renal was > 100 µM each time. Further, the TGI in the assay on SK-MEL-5 melanoma and in the assay on SF-268 CNS was > 100 µM in each case.
Turning to `COC(=O)/C=C(\C)C(=O)N(C)c1ccccc1I`, the TGI in the assay on MDA-MB-231 breast, in the assay with MDA-N, in the assay with K-562 leukemia, with NCI/ADR-RES ovarian, in the assay with EKVX NSCLC and with MDA-MB-435 was > 100 µM in each case. The TGI with UO-31 renal, with SK-MEL-5 melanoma and with SF-268 CNS was > 100 µM in each case.
Regarding `CN(CN1C(=O)C2Cc3ccccc3CN2C1=O)c1ccccn1` (stereo not drawn), the TGI in the assay on K-562 leukemia, in the assay on UO-31 renal, with SK-MEL-5 melanoma and with SF-268 CNS was > 100 µM throughout.
`CCOC(=O)Oc1cc2c(c(OC)c1OC)-c1ccc(SC)c(=O)cc1C(NC(=O)C(F)(F)F)CC2` (stereo not drawn): the TGI was < 0.001 µM in the assay on MDA-N; > 100 µM in the assay on K-562 leukemia; < 0.001 µM with MDA-MB-435; 75.6 µM in the assay with UO-31 renal; 0.00191 µM in the assay with SK-MEL-5 melanoma. The concentration for 50% growth inhibition (GI50) (in general, the concentration at which growth is held to half of that of the control) in the assay with NCI/ADR-RES ovarian was 0.023 µM.
Regarding `O=C1O/C(=C(\Br)c2cccc3ccccc23)c2ccccc21`, the concentration for total growth inhibition (TGI) was > 68.4 µM in the assay on K-562 leukemia; > 59.7 µM in the assay with EKVX NSCLC; > 56.1 µM with UO-31 renal; 51.1 µM in the assay on SK-MEL-5 melanoma; > 55.7 µM in the assay on SF-268 CNS.
For the compound `CCC1C(c2cccc(OC)c2O)c2cc3c(cc2OC1N1CCCC1)OCO3` (stereo not drawn), the TGI in the assay with MDA-N is 19.7 µM; with K-562 leukemia, 38.7 µM; in the assay on NCI/ADR-RES ovarian, 54.7 µM; with EKVX NSCLC it was > 100 µM; with MDA-MB-435, 15.9 µM; in the assay with UO-31 renal, 39.5 µM. The TGI in the assay with SK-MEL-5 melanoma worked out at 22.8 µM; in the assay with SF-268 CNS it was 58.9 µM.
With `Cc1nc2c(n1C(C)(C)C)C(=O)c1ccccc1C2=O`, the TGI with K-562 leukemia, in the assay with EKVX NSCLC, in the assay on UO-31 renal, in the assay on SK-MEL-5 melanoma and in the assay on SF-268 CNS was > 100 µM throughout.
As for `O=C(Nc1cccc(C(F)(F)F)c1)O/N=C(/Cl)CCl`, the TGI in the assay on MDA-MB-231 breast was 39 µM; in the assay on MDA-N it was > 100 µM; in the assay with K-562 leukemia it was > 100 µM; with NCI/ADR-RES ovarian it was > 100 µM; with EKVX NSCLC, > 100 µM; in the assay on UO-31 renal, > 100 µM. The TGI with SK-MEL-5 melanoma and with SF-268 CNS was > 100 µM throughout.
As to `COc1ccccc1-c1cc(=O)c2ccccc2[nH]1`, the TGI in the assay with K-562 leukemia, in the assay with EKVX NSCLC, in the assay on UO-31 renal and in the assay on SF-268 CNS was > 100 µM in each case.
